# Experimental data: ChEMBL document CHEMBL5223113, “Several non-salt and solid thienopyridine derivatives as oral P2Y12 receptor inhibitors with good stability” (Bioorg Med Chem Lett, 2022)
# Experiments:
# Rattus norvegicus [1] = test: Anti-platelet activity against ADP-induced platelet aggregation in rat assessed as inhibition of platelet aggregation at 0.5 mg/kg relative to control; format: functional
# Rattus norvegicus [2] = test: Anti-platelet activity against ADP-induced platelet aggregation in rat assessed as inhibition of platelet aggregation at 2 mg/kg relative to control; format: functional
# Rattus norvegicus [3] = test: Anti-platelet activity against ADP-induced platelet aggregation in rat assessed as inhibition of platelet aggregation at 1 mg/kg relative to control; format: functional
# [4] = Toxicity in beagle dog assessed as dilated pupil at 100 to 300 mg/kg/day oral gavage observed for 14 days; format: organism-based, Canis lupus familiaris; details: in vivo, 336 h, dose 100-300 mg/kg/day, time 14 day
# Rattus norvegicus [5] = species: Rattus norvegicus; test: Inhibition of thrombosis in anteriovenous bypassed rat; format: functional
# [6] = Stability in human plasma assessed as compound remaining measured at 90 mins relative to control; format: ADME, cell-free; details: read-out: Stability
# [7] = Toxicity in beagle dog assessed as vomiting at 100 to 300 mg/kg/day oral gavage observed for 14 days; format: organism-based, Canis lupus familiaris; details: in vivo, 336 h, dose 100-300 mg/kg/day, time 14 day
# [8] = Toxicity in rat assessed as bleeding time by tail cutting assay; details: in vivo
# Rattus norvegicus [9] = test: Inhibition of thrombosis in anteriovenous bypassed rat at 1 mg/kg relative to control; format: functional
# [10] = Stability in human plasma assessed as compound remaining measured at 360 mins relative to control; format: ADME, cell-free; details: read-out: Stability
# [11] = Toxicity in beagle dog assessed as electrocardiogram at 100 to 300 mg/kg/day oral gavage observed for 14 days; format: organism-based, Canis lupus familiaris; details: in vivo, 336 h, dose 100-300 mg/kg/day, time 14 day
# [12] = Toxicity in beagle dog assessed as abnormality in blood and biochemical index at 2000 mg/kg oral gavage observed for 14 days; format: organism-based, Canis lupus familiaris; details: in vivo, 336 h, time 14 day
# [13] = Stability in human plasma assessed as compound remaining measured at 240 mins relative to control; format: ADME, cell-free; details: read-out: Stability
# [14] = Toxicity in beagle dog assessed as swelling of hepatocyte at 100 mg/kg/day oral gavage observed for 14 days; format: organism-based, Canis lupus familiaris; details: hepatocytes, 336 h, time 14 day
# [15] = Toxicity in beagle dog assessed as emesis at 100 mg/kg/day oral gavage observed for 14 days; format: organism-based, Canis lupus familiaris; details: in vivo, 336 h, time 14 day
# [16] = Stability in human plasma assessed as compound remaining measured at 120 mins relative to control; format: ADME, cell-free; details: read-out: Stability
# Rattus norvegicus [17] = test: Inhibition of thrombosis in anteriovenous bypassed rat at 30 mg/kg relative to control; format: functional
# [18] = Stability in human plasma assessed as compound remaining measured at 20 mins relative to control; format: ADME, cell-free; details: read-out: Stability
# [19] = Toxicity in beagle dog assessed as increase in liver weight at 100 mg/kg/day oral gavage observed for 14 days; format: organism-based, Canis lupus familiaris; details: in vivo, 336 h, time 14 day
# [20] = Stability in human plasma assessed as compound remaining measured at 60 mins relative to control; format: ADME, cell-free; details: read-out: Stability
# [21] = Toxicity in beagle dog assessed as increase in ALP at 100 mg/kg/day oral gavage observed for 14 days; format: organism-based, Canis lupus familiaris; details: in vivo, 336 h, time 14 day
# [22] = Stability in human plasma assessed as compound remaining measured at 10 mins relative to control; format: ADME, cell-free; details: read-out: Stability
# [23] = Stability in human plasma assessed as compound remaining measured at 30 mins relative to control; format: ADME, cell-free; details: read-out: Stability
# [24] = Toxicity in beagle dog assessed as death at 2000 mg/kg oral gavage observed for 14 days; format: organism-based, Canis lupus familiaris; details: in vivo, 336 h, time 14 day
# [25] = Toxicity in beagle dog assessed as ALP level at 100 to 300 mg/kg/day oral gavage observed for 14 days; format: organism-based, Canis lupus familiaris; details: in vivo, 336 h, dose 100-300 mg/kg/day, time 14 day
# [26] = Toxicity in beagle dog assessed as decrease in platelet aggregation at 100 mg/kg/day oral gavage observed for 14 days; format: organism-based, Canis lupus familiaris; details: in vivo, 336 h, time 14 day
# Rattus norvegicus [27] = test: Inhibition of thrombosis in anteriovenous bypassed rat at 10 mg/kg relative to control; format: functional
# [28] = Toxicity in beagle dog assessed as mydriasis at 100 mg/kg/day oral gavage observed for 14 days; format: organism-based, Canis lupus familiaris; details: in vivo, 336 h, time 14 day
# [29] = Stability in human plasma assessed as compound remaining measured at 180 mins relative to control; format: ADME, cell-free; details: read-out: Stability
# [30] = Toxicity in rat assessed as bleeding time by measuring ratio of ED200 to ED50 ratio by tail cutting assay; details: in vivo
# [31] = Stability in human plasma assessed as compound remaining measured at 45 mins relative to control; format: ADME, cell-free; details: read-out: Stability
# [32] = Stability in human plasma assessed as compound remaining measured at 300 mins relative to control; format: ADME, cell-free; details: read-out: Stability
# [33] = Stability in human plasma assessed as compound remaining measured at 150 mins relative to control; format: ADME, cell-free; details: read-out: Stability
# [34] = Stability in human plasma assessed as compound remaining measured at 5 mins relative to control; format: ADME, cell-free; details: read-out: Stability
# [35] = Toxicity in beagle dog assessed as electrocardiogram at 2000 mg/kg oral gavage observed for 14 days; format: organism-based, Canis lupus familiaris; details: in vivo, 336 h, time 14 day
# [36] = Toxicity in beagle dog assessed as ALT level at 100 to 300 mg/kg/day oral gavage observed for 14 days; format: organism-based, Canis lupus familiaris; details: in vivo, 336 h, dose 100-300 mg/kg/day, time 14 day
# Rattus norvegicus [37] = test: Inhibition of thrombosis in anteriovenous bypassed rat at 3 mg/kg relative to control; format: functional
# [38] = Toxicity in beagle dog assessed as abnormality in blood and biochemical index at 100 to 300 mg/kg/day oral gavage observed for 14 days; format: organism-based, Canis lupus familiaris; details: in vivo, 336 h, dose 100-300 mg/kg/day, time 14 day
# Rattus norvegicus [39] = test: Anti-platelet activity against ADP-induced platelet aggregation in rat assessed as inhibition of platelet aggregation at 4 mg/kg relative to control; format: functional
# Rattus norvegicus [40] = species: Rattus norvegicus; test: Anti-platelet activity against ADP-induced platelet aggregation in rat assessed as inhibition of platelet aggregation; format: functional
# Rattus norvegicus [41] = test: Anti-platelet activity against ADP-induced platelet aggregation in rat assessed as inhibition of platelet aggregation at 8 mg/kg relative to control; format: functional
structure (smiles),measurement,setting,value
CCC/C=C/C(=O)Oc1cc2c(s1)CCN([C@H](C(=O)OC)c1ccccc1Cl)C2,inhibition in vivo at 0.5 mg/kg,Rattus norvegicus [1],19.5%
same,inhibition in vivo at 2 mg/kg,Rattus norvegicus [2],74.3%
same,inhibition in vivo at 1 mg/kg,Rattus norvegicus [3],52.8%
C/C=C/C(=O)Oc1cc2c(s1)CCN([C@H](C(=O)OC)c1ccccc1Cl)C2,Activity,[4],Non-Toxic
same,ED50,Rattus norvegicus [5],11.8 mg/kg
same,remaining at 1.5 h,[6],5.49%
same,Activity,[7],Non-Toxic
same,ED200,[8],1.977 mg/kg
same,inhibition in vivo at 1 mg/kg,Rattus norvegicus [9],18.3%
same,remaining at 6 h,[10],0%
same,Activity,[11],Non-Toxic
same,Activity,[12],Non-Toxic
same,remaining at 4 h,[13],0%
same,Activity,[14],Toxic
same,Activity,[15],Toxic
same,remaining at 2 h,[16],1.7%
same,inhibition in vivo at 0.5 mg/kg,Rattus norvegicus [1],22.4%
same,inhibition in vivo at 30 mg/kg,Rattus norvegicus [17],64.2%
same,remaining at 20 min,[18],60.5%
same,inhibition in vivo at 2 mg/kg,Rattus norvegicus [2],77%
same,Activity,[19],Toxic
same,remaining at 1 h,[20],18.3%
same,Activity,[21],Toxic
same,remaining at 10 min,[22],82.3%
same,remaining at 0.5 h,[23],44.7%
same,Activity,[24],Non-Toxic
same,Activity,[25],Non-Toxic
same,Activity,[26],Toxic
same,inhibition in vivo at 1 mg/kg,Rattus norvegicus [3],50.2%
same,inhibition in vivo at 10 mg/kg,Rattus norvegicus [27],56%
same,Activity,[28],Toxic
same,remaining at 3 h,[29],0.231%
same,selectivity ratio,[30],1.97
same,remaining at 0.75 h,[31],28%
same,remaining at 5 h,[32],0%
same,remaining at 2.5 h,[33],0.588%
same,remaining at 5 min,[34],91.7%
same,Activity,[35],Non-Toxic
same,Activity,[36],Non-Toxic
same,inhibition in vivo at 3 mg/kg,Rattus norvegicus [37],43.2%
same,Activity,[38],Non-Toxic
CC/C=C/C(=O)Oc1cc2c(s1)CCN([C@H](C(=O)OC)c1ccccc1Cl)C2,inhibition in vivo at 4 mg/kg,Rattus norvegicus [39],78.4%
same,ED50,Rattus norvegicus [40],1.23 mg/kg
same,inhibition in vivo at 8 mg/kg,Rattus norvegicus [41],100%
same,inhibition in vivo at 0.5 mg/kg,Rattus norvegicus [1],26.2%
same,inhibition in vivo at 2 mg/kg,Rattus norvegicus [2],62.9%
same,inhibition in vivo at 1 mg/kg,Rattus norvegicus [3],38.2%
